Reference: patent publication US20060128744A1, “Use of 5-HT6 agonist for the treatment and prevention of neurodegenerative disorders” (Wyeth, priority 2004, published 2006)

How the values were obtained:
[1] = target: T1, human cloned 5-HT6 receptors (Homo sapiens, UniProt P50406); experiment: 5-HT6 binding affinity, [3H]-LSD displacement in membranes of Hela cells
T1 construct: expressed in transfected cells; host or cells: HeLa cells (membrane preparation)
Procedure: The affinity of test compounds for the serotonin 5-HT6 receptor is evaluated in the following manner. Cultured Hela cells expressing human cloned 5-HT6 receptors are harvested and centrifuged at low speed (1,000×g) for 10.0 min to remove the culture media. The harvested cells are suspended in half volume of fresh physiological phosphate buffered saline solution and recentrifuged at the same speed. This operation is repeated. The collected cells are then homogenized in ten volumes of 50 mM Tris.HCl (pH 7.4) and 0.5 mM EDTA. The homogenate is centrifuged at 40,000×g for 30.0 min and the precipitate is collected. The obtained pellet is resuspended in 10 volumes of Tris.HCl buffer and recentrifuged at the same speed. The final pellet is suspended in a small volume of Tris.HCl buffer and the tissue protein content is determined in aliquots of 10-25 μl volumes. […] The volume of the suspended cell membranes is adjusted to give a tissue protein concentration of 1.0 mg/ml of suspension. […]
The bound complex caught on the filter disk is allowed to air dry and the radioactivity is measured in a Packard TopCount® equipped with six photomultiplier detectors, after the addition of 40.0 μl Microscint®-20 scintillant to each shallow well.
Binding in the presence of varying concentrations of test compound is expressed as a percentage of specific binding in the absence of test compound. […]

[2] = target: T2, human 5-HT6 receptor stabily transfected into HELA cells (Homo sapiens, UniProt P50406); experiment: 5-HT6 agonist activity using cAMP accumulation; type: cell-based
T2 construct: expressed in transfected cells; host or cells: HeLa cells, stably transfected
T2 sequence (P50406 whole entry): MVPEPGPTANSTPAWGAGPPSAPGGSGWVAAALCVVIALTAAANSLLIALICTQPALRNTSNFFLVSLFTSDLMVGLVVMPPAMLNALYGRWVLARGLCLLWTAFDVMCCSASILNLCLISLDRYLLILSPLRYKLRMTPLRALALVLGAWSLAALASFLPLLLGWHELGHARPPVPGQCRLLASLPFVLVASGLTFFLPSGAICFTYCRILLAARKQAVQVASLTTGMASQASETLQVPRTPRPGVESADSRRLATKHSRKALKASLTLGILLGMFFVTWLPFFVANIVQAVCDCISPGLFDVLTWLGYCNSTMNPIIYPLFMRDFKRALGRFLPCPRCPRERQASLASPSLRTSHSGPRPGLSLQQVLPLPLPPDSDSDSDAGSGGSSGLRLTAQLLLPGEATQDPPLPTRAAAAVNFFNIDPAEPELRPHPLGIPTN
Procedure: Upon initiation of the assay, the media from cell maintenance is aspirated and cells are preincubated at 37° C. for 15 mins. in KREBS buffer. Following this primary incubation, the buffer is aspirated and an additional incubation is performed at 37° C. for 5 mins. in KREBS buffer containing 500 uM IBMX (3-isobutyl-1-methylxanthine). […] The assay is terminated by the addition of 0.5M perchloric acid. […] Data are analyzed graphically with GraphPad Prism (GraphPad Software, San Diego, Calif.).

[3] = system: neuron cultures from E16 rat embryos; conditions: 72 h
Procedure: In this evaluation neuron cultures are prepared from E16 rat embryos. […] After a 72 h period, neuronal survival is determined by a neurofilament ELISA.
The data are expressed as total neurofilament content.

[4] = system: cortical neuron cultures from E16 rat embryos; conditions: 72 h
Procedure: In this evaluation cortical neuron cultures are prepared from E16 rat embryos. […] Neurite outgrowth is determined after a 72 h period by staining cells with a tubulin antibody (TUJ-1) and measuring neurite length with the Cellomics ArrayScan, using the Enhanced Neurite Outgrowth (ENO) algorithm. The data are expressed as total neurite length.

[5] = system: brain derived neurotrophic factor (BDNF) protein in cortical neuron cultures; experiment: BDNF protein levels in cultured cortical neurons, sandwich ELISA; type: cell-based, rat; conditions: 72 h in culture
Procedure: In this evaluation cortical neuron cultures are prepared from E16 rat embryos and plated on pre-coated 10 cm Petri dishes. […] Levels of brain derived neurotrophic factor (BDNF) protein were measured after a 72 h period by lysing the cells and using a BDNF sandwich ELISA. More specifically, ELISA plates were coated with an anti-BDNF monoclonal antibody. Nonspecific binding was blocked and 50 μg of sample protein was added. A second anti-BDNF antibody was added and incubated. An anti-IgY antibody conjugated with horseradish peroxidase was added and incubated. A TMB solution was added and the colorimetric reaction was measured in a plate reader (absorbance of 450 nm). BDNF levels are quantified after 72 h in culture.

[6] = system: cerebellar granule neurons; experiment: Oxygen glucose deprivation (OGD) in cerebellar granule neurons, LDH release; type: cell-based, rat; conditions: 4 h OGD, 24 h recovery
Procedure: (§1) Cerebella isolated from P7 rat pup brains are cut into 1 mm pieces and transferred to a tube containing 0.3 mg/ml trypsin in HBSS. Following enzymatic digestion, the tissue is mechanically triturated. The supernatant is collected and centrifuged at 1200 rpm for 10 minutes. The resultant pellet is resuspended in complete media (Neurobasal, […], 0.5 mM L-glutamine, 100 U/ml penicillin, 100 μg/ml streptomycin, 10% FBS) and plated at a density of 0.5×10^6 cells/well in 24-well plates. After 24 h, media is exchanged with complete serum-free medial (Neurobasal, […], 0.5 mM L-glutamine, 100 U/ml penicillin, 100 μg/ml streptomycin, B-27 supplement).
This is a well characterized model of ischemia-like neuronal injury involving glutamate-induced excitotoxicity (A. Kaasik, et al, Neuroscience (2001) 102, pp427-432). Cultures are maintained for 14 days in vitro prior to experimentation. […] Following the 4 h OGD, deoxygenated buffer is exchanged with complete media. […] At the end of the 24-h period, cell death is determined by measuring lactate dehydrogenase (LDH) released into the media and is expressed as a percent of cell death. The results are shown in FIG. 3 and are presented as means±SD from 5 experiments. Sham bar represents results obtained with cultures subjected to manipulations and changes of culture media without OGD or drug treatment.

[7] = system: cerebellar granule neurons; experiment: Potassium withdrawal-induced apoptosis in cerebellar granule neurons, DNA fragmentation ELISA; type: cell-based, rat; conditions: 5 mM K+, 24 h
Procedure: as §1
Potassium withdrawal, i.e. replacement of […] in the CGN culture medium is a well established model of neuronal cell death by apoptosis (T. M. Miller and E. M. Johnson, Journal of Neuroscience, (1996) 16(23), pp7487-7495). Cultures are maintained for 7 days prior to experimentation. Complete media containing 25 mM K^+ is exchanged with complete media containing 5 mM K^+. […] After 24 h, apoptotic cell death is determined by measuring DNA fragmentation via ELISA. Apoptotic cell death is expressed as % apoptosis.

T1 sequence (P50406 whole entry): as above

## COc1ccc(OC)c(S(=O)(=O)c2cn(CCN)c3ncccc23)c1 [Test Compound A, (2-{3-[(2,5-dimethoxyphenyl)sulfonyl]-1H-pyrrolo[2,3-b]pyridin-1-yl}ethyl)amine]
[1]
  Ki: 3.6 nM
[2]
  Emax: 95%

## CN(C)CCn1cc(S(=O)(=O)c2cccc(F)c2)c2cccnc21 [Test Compound B, N-(2-{3-[(3-fluorophenyl)sulfonyl]-1H-pyrrolo[2,3-b]pyridin-1-yl}ethyl)-N,N-dimethylamine]
[3]
  neurofilament content compared to vehicle treated controls: increases the neurofilament content
[4]
  total neurite length compared to vehicle treated controls: increased total neurite length
[5]
  BDNF protein levels compared to vehicle treated control: significantly increased BDNF protein levels

## NCCc1cn(S(=O)(=O)c2c(Cl)nc3sccn23)c2ccccc12 [Test Compound C]
[6]; 1 μM
  reduction of neuronal death: 50%
[6]; 1 h pretreatment
  effect on OGD-induced neuronal cell death: dose-dependent reduction of neuronal cell death
[6]; LDH release
  lowest concentration providing significant protection against OGD-induced cell death: 10 nM
[7]; 0.3 μM
  reduction of apoptotic cell death: 50%
[7]; 3.0 μM
  protection from apoptosis: almost total protection from apoptosis
[7]
  effect on amount of fragmented DNA (measure of apoptosis): significantly, and dose dependently, attenuated
